Experimental data taken from patent US20150104430A1, “Methods and Compositions for Generating Pancreatic Progenitors and Functional Beta Cells from hPSCs” (University Health Network, priority 2012, published 2015).

Assays:
[1] = tested on: human ES cell line: H9 (WA09); assay: Percentage of NKX6-1+ cells after stage 4 treatment of H9 (WA09)-derived endodermal cells; format: cell-based; conditions: day 13 of differentiation, treatment at stage 4
[2] = tested on: human fetal pancreatic cells; conditions: Otonkoski et al., 1993; cited from earlier work

Row | Molecule | Percentage of NKX6-1+ cells [1] | induction of endocrine differentiation [2]
1 | NC(=O)c1cccnc1 [Nicotinamide (NA), Nicotinamide] | 14.0% | potent inducer of endocrine differentiation
2 | EGF [EGF (E)] | 18.5% | 
3 | Noggin (protein, UniProt Q13253 28-232, looked up, bone morphogenetic protein antagonist having Gene ID: 9241) Noggin: QHYLHIRPAPSDNLPLVDLIEHPDPIFDPKEKDLNETLLRSLLGGHYDPGFMATSPPEDRPGGGGGAAGGAEDLAELDQLLRQRPSGAMPSEIKGLEFSEGLAQGKKQRLSKKLRRKLQMWLWSQTFCPVLYAWNDLGSRFWPRYVKVGSCFSKRSCSVPEGMVCKPSKSVHLTVLRWRCQRRGGQRCGWIPIQYPIISECKCSC | 21.7% | 
